Laboratory results taken from paper PMC4621900, “Ebselen inhibits QSOX1 enzymatic activity and suppresses invasion of pancreatic and renal cancer cell lines” (Oncotarget, 2015).

How the values were obtained:
glucose oxidase (GOx) = glucose oxidase (GOx) (Aspergillus niger, UniProt P13006); test: luminescent (ROS-Glo) H2O2-detection enzyme assay, counter-screen; assay type: biochemical
[1] = target: T1, Quiescin sulfhydryl oxidase 1 (QSOX1) (Homo sapiens, UniProt O00391); test: intact-protein LC-ESI-MS of covalent adducts and maleimide protection assay; IC50 from purified-enzyme luminescent H2O2 assay, confirmed by HVA fluorescence assay; assay type: biochemical
T1 construct: amino acids 33–546 of QSOX1-S, N-terminal poly-histidine tag (rQSOX1)
T1 sequence (O00391 33-546): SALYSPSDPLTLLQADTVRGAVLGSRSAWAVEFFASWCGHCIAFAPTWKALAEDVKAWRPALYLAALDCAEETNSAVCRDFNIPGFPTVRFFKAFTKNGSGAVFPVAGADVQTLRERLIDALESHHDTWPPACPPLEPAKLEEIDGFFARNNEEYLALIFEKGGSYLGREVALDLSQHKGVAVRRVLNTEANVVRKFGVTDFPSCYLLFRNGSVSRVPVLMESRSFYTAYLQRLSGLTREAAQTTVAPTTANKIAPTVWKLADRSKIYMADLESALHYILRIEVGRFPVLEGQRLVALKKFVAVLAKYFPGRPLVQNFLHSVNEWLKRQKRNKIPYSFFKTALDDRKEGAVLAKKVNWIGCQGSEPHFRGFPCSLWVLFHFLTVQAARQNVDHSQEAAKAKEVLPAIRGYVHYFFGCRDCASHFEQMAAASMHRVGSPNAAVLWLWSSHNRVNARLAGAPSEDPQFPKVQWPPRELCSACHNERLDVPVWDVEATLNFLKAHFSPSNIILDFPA

Sequence of glucose oxidase (GOx) (P13006 17-605): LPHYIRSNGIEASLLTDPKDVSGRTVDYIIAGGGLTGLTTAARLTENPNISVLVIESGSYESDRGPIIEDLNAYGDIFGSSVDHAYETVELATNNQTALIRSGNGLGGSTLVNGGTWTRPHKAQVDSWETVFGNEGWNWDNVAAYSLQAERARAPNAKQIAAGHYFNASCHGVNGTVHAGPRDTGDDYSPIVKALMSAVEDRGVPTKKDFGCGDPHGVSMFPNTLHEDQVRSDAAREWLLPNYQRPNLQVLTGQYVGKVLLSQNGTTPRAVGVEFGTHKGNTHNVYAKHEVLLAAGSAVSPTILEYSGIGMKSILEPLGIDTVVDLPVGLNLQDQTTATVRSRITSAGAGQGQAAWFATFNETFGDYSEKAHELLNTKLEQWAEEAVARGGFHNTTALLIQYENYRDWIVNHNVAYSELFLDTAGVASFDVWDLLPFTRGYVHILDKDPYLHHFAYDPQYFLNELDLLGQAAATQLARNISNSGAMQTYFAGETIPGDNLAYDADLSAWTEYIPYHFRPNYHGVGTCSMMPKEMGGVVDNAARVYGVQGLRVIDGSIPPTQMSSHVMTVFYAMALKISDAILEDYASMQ

SMILES: O=c1c2ccccc2[se]n1-c1ccccc1 [ebselen, 2-phenyl-1,2-benzisoselenazol-3(2H)-one]
- IC50 (glucose oxidase (GOx)): 20.5 µM
- IC50 [1]: 5.4 µM
